Data on one compound can be found in patent US20040115160A1, “Quaternary ammonium esters for disinfection and preservation” (priority 2002, published 2004).

Where two headings read alike, the source gives them in different places.

What all share (type): cell-based
Assay [1] concerns Acanthamoeba polyphaga strain Ros cysts. As to the kind of experiment: Acanthamoeba contact lens disinfectant challenge test assay. Particulars: 25 ppm. The procedure: Acanthamoeba polyphaga strain Ros were used in this study. Trophozoites were maintained at 30° C. in an axenic broth medium composed of 20.0 g Biosate™ (Becton Dickinson, United Kingdom), 5.0 g glucose, 0.3 g KH2PO4, 10 μg vitamin B12 and 15.0 mg L-methionine per litre of deionized water. The pH was adjusted to 6.5-6.6 with 1 M NaOH before autoclaving at 121° C. for 12 minutes. Penicillin and streptomycin were added to a final concentration of 150 μ/ml before use.
Cysts were prepared from trophozoite cultures using the axenic medium supplemented with 50 mM MgCl2. The encystment medium was inoculated with approximately 2×10^5 /ml trophoxoites for culture at 30° C. in a shaking incubator (100 rpm) for 7 days. Cells were enumerated using haemocytometer counting.
The challenge test assay protocol, as described by R. Hughes and S. Kilvington, Comparison of Hydrogen Peroxide Contact Lens Disinfection Systems and Solutions Against Acanthamoeba Polyphaga, Antimicrob. Agents Chemother. 45: 2038-2043, (2001), is set forth in detail below. The number of surviving organisms was calculated as described by L. J. Reed and H. Muench, A Simple Method for Estimating Fifty Percent Endpoints, Am. J. Hyg., 27: 493-497, (1938). Statistical analysis of the data was by One Way Analysis Of Variance (ANOVA).
1. Fifty ml polypropylene centrifuge tubes were aged overnight with 15 ml of disinfectant solution, i.e., ReNue™ 02 (Bausch & Lomb, Rochester, N.Y.). The tubes were then drained, the disinfectant solution discarded, and refilled with 10 ml of fresh disinfectant solution for testing.
2. To a flat-bottomed, 96 well microtitre plate having 8 columns labelled “A” through “H”, 180 μl of neutralizer, i.e., 0.1 percent Tween™ 80 (Baker, Inc., Phillipsburg, N.J.) in one-quarter strength Ringer's solution for biguanide based disinfectants, was added to the outer wells of columns A and H. 180 μl of one-quarter strength Ringer's solution was then added to the remaining inner wells of columns B through G.
3. Amoebae were adjusted to 5×10^6 /ml in one-quarter strength Ringer's solution and 100 μl (5×10^5) was added to 10 ml of disinfectant (5×10^4 /ml) or saline control.
4. At time intervals of 0, 1, 2, 3, 4, 6 and 24 hours:
i. vortexed tubes 5 seconds;
ii. in quadruplet, removed 20 μl (1000 cells) and added to neutralizer wells for the given time-point (i.e., column A, rows 9-12) and made serial 10-fold dilutions across the microtitre plate (i.e., to column D, rows 9-12); and
iii. repeated for each time point.
5. One drop of live E. coli from 3 ml pastette (25 μl of approximately 5×10^7 bacteria/ml) was then added to each well.
6. The plate was then incubated at 32° C. for up to 7 days.
7. The plate was inspected daily for 7 days for the presence of amoebal growth, either trophozoite replication or excystment and trophozoite replication, in the wells.
8. The number of surviving organisms was then estimated at each time interval by Reed and Muench computation and set forth below in Table 3.

In assay [2] the test system is Staphylococcus aureus (ATCC 6538). As to the kind of experiment: Stand-alone biocidal test without organic soil. The following applies: 25 ppm in BBS, without organic soil. On the procedure: (§1) A test was conducted to study the microbiocidal efficacy of a solution containing a quaternary ammonium ester of the present invention employing borate buffered saline (BBS). The antimicrobial efficacy of each of the various compositions for the chemical disinfection of contact lenses was evaluated. Microbial challenge inoculums were prepared using Pseudomonas aeruginosa (ATCC 9027), Staphylococcus aureus (ATCC 6538), Serratia marcescens (ATCC 13880), Candida albicans (ATCC 10231) and Fusarium solani (ATCC 36031). The test organisms were cultured on appropriate agar and the cultures were harvested using sterile DPBST (Dulbecco's Phosphate Buffered Saline plus 0.05 percent weight/volume polysorbate 80) or a suitable diluent and transferred to a suitable vessel. Spore suspensions were filtered through sterile glass wool to remove hyphal fragments. Serratia marcescens, as appropriate, was filtered through a 1.2 mμ filter to clarify the suspension. After harvesting, the suspension was centrifuged at no more than 5000×g for a maximum of 30 minutes at 20 to 25° C. The supernatant was poured off and resuspended in DPBST or other suitable diluent. The suspension was centrifuged a second time, and resuspended in DPBST or other suitable diluent. All challenge bacterial and fungal cell suspensions were adjusted with DPBST or other suitable diluent to 1×10^7 to 1×10^8 cfu/ml. The appropriate cell concentration may be estimated by measuring the turbidity of the suspension, for example, using a spectrophotometer at a preselected wavelength, for example 490 nm. One tube was prepared containing a minimum of 10 ml of test solution per challenge organism. Each tube of the solution to be tested was inoculated with a suspension of the test organism sufficient to provide a final count of 1×10^5 to 1×10^6 cfu/ml, the volume of the inoculum not exceeding 1 percent of the sample volume. Dispersion of the inoculum was ensured by vortexing the sample for at least 15 seconds. The inoculated product was stored at 10 to 25° C. Aliquots in the amount of 1.0 ml were taken of the inoculated product for determination of viable counts after certain time periods of disinfection. The time points for the bacteria were, for example, 1, 2, 3 and 4 hours when the proposed regimen soaking time was four hours. Yeast and mold were tested at an additional timepoint of 16 hours (4 times the regimen time). The suspension was mixed well by vortexing vigorously for at least 5 seconds. The 1.0 ml aliquots removed at the specified time intervals were subjected to a suitable series of decimal dilutions in validated neutralizing media. The suspensions were mixed vigorously and incubated for a suitable period of time to allow for neutralization of the microbial agent at room temperature. The viable count of organisms was determined in appropriate dilutions by preparation of triplicate plates of trypticase soy (TSA) agar for bacteria and Sabouraud dextrose agar (SDA) for mold and yeast. The bacterial recovery plates were incubated at 30 to 35° C. for two to four days. The yeast was incubated at 20 to 30° C. for two to four days and mold recovery plates were incubated at 20 to 25° C. for three to seven days. The average number of colony forming units was determined on countable plates. Countable plates refer to 30 to 300 cfu/plates for bacteria and yeast, and 8 to 80 cfu/plate for mold except when colonies are observed only for the 10^0 or 10^−1 dilution plates. The microbial reduction was then calculated at the specified time points. […] Following inoculation in a validated neutralizing broth and incubation for an appropriate period of time, the inoculum control must be between 1.0×10^5 to 1.0×10^6 cfu/ml. […]

Assay [3] deals with Pseudomonas aeruginosa (ATCC 9027). The assay can be described thus: Stand-alone biocidal test without organic soil. Particulars: 25 ppm in BBS, without organic soil. The procedure:
as §1

In assay [4] the test system is Fusarium solani (ATCC 36031). The assay can be described thus: Stand-alone biocidal test without organic soil. The following applies: Fusarium solani, read-out: Stand-alone biocidal result (microbial log reduction) F. solani. On the procedure: as §1

Consider `CCCCCCCCCCCCCC(=O)OCCC[N+](C)(C)Cc1ccccc1` [Compound 1, N-myristoyloxypropyl-N-benzyl-N,N-dimethylammonium chloride], for which the “Amoebae Log Kill, Cysts” value in assay [1] (1 Hr.) and in assay [1] (4 Hr.) was 3.30 Log throughout. Also, the “Stand-alone biocidal result (microbial log reduction) S. aureus” value in assay [2] (1 hr.) is given as 4.6; in assay [2] (4 hr.), greater than 4.8. In addition, the “Stand-alone biocidal result (microbial log reduction) P. aeruginosa” value in assay [3] (1 hr.) and in assay [3] (4 hr.) was greater than 4.7 throughout. Also, the log reduction at 25 ppm in assay [4] (ATCC36031, 1 h) came to 4; in assay [4] (ATCC36031, 4 h), 4.2.
